For 14 compounds, TGI results are on record in PubChem BioAssay (NCI).

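Each compound was tested at five concentrations against cells in 96-well plates for 48 hours. Definition used: TGI = concentration required for complete inhibition of growth.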

What all share (test): NCI tumour cell line growth inhibition, 48 h
Test [1] relates to MOLT-4 leukemia.
For test [2], the system named is SNB-75 CNS.
For test [3], the system named is MCF7 breast.
The test system of test [4] is HL-60(TB) leukemia.
In test [5] the test system is RPMI-8226 leukemia.
The subject of test [6] is HOP-62 NSCLC.
For test [7], the system named is A498 renal.
Test [8] concerns SR leukemia.
Test [9] has as its system KM12 colon.
For test [10], the system named is CCRF-CEM leukemia.
Test [11] concerns MDA-MB-435.
In test [12] the test system is K-562 leukemia.
Test [13] deals with ACHN renal.
Test [14] deals with BT-549 breast.
The test system of test [15] is UO-31 renal.
In test [16] the test system is SK-MEL-5 melanoma.
The subject of test [17] is TK-10 renal.
For test [18], the system named is NCI-H460 lung.
In test [19] the test system is T-47D breast.
The subject of test [20] is SNB-19 CNS.

In the case of `CCCCCCCCCCCCCCCCC(=O)NCC(=O)NCC(=O)NC(Cc1ccccc1)C(=O)Oc1ccc([N+](=O)[O-])cc1` (stereo not drawn), the TGI was 38.7 µM in [1]; above 100 µM in [2]; above 100 µM in test [3]; above 100 µM in [4]; 58.2 µM in test [5]; above 100 µM in [6]. Besides, the TGI was above 100 µM in test [7]; 51.3 µM in [8]; 48.8 µM in test [9]; 44.9 µM in [10]; above 100 µM in test [11]; 56.6 µM in test [12]. Also, the TGI in test [13] was above 100 µM; in [14], 34.2 µM; in test [15], above 100 µM; in test [16] it was 47.4 µM; in test [17], above 100 µM; in test [18], 38.6 µM. For the same compound, the TGI in test [19] was above 100 µM.
In the case of `Nc1cc(N2CCOCC2)nc(=O)n1-c1ccccc1`, the TGI in test [1], in test [2], in test [3], in test [4], in test [5] and in test [6] was above 100 µM throughout. The TGI in [7], in [8], in test [9], in test [20], in test [10] and in test [11] was above 100 µM in each case. Also, the TGI in [12], in test [13], in test [14], in test [15], in test [16] and in [18] was above 100 µM in each case. For the same compound, the TGI in test [19] is above 100 µM.
Take `O=[N+]([O-])c1ccc(CSc2c3ccccc3nc3ccccc23)cc1`: the TGI in test [1] is above 21.2 µM; in [2], 33.1 µM; in test [3], above 100 µM; in test [4], 22.8 µM; in test [5], 9.29 µM; in test [6], 35.7 µM. The TGI was 58.8 µM in test [7]; above 27.1 µM in test [8]; 16.2 µM in test [9]; 37.4 µM in [20]; above 22.9 µM in test [10]; 14.3 µM in test [11]. For the same compound, the TGI in test [12] was above 34.9 µM; in [13] it was 12.9 µM; in [14], 33.4 µM; in test [15], 17 µM; in test [16] it was 30.5 µM; in test [17], 17.4 µM. Besides, the TGI in [18] was determined as 46.9 µM; in [19] it was 4.18 µM.
For the compound `CSC1=C(C(=O)N(COCC[Si](C)(C)C)c2ccccc2Br)CCC(C(C)(C)C)C1` (stereo not drawn), the TGI in test [1] is 21.9 µM; in test [2] it was above 100 µM; in test [3], 28 µM; in test [4], 11.8 µM; in test [5], above 100 µM; in test [6] it was 53.2 µM. Besides, the TGI in test [7] is 85.9 µM; in test [8], 11.7 µM; in test [9], 42.2 µM; in test [20], 42.9 µM; in test [10], above 100 µM; in [11], above 100 µM. For the same compound, the TGI in test [12] was 29.1 µM; in [13] it was 51.2 µM; in test [14], above 100 µM; in test [15] it was 27 µM; in test [16], 27.2 µM; in test [17] it was above 100 µM. In addition, the TGI in test [18] stood at 44.1 µM; in [19] it was 34.3 µM.
Consider `COC(=O)c1c(O)ccc2c1c1cc3ccccc3c(O)c1n2Cc1ccccc1Cl`, for which the TGI in test [1] was above 100 µM; in test [3], above 100 µM; in test [4], 74.9 µM; in test [5] it was 70 µM; in [6], 59.3 µM; in test [7], above 100 µM. For the same compound, the TGI is above 100 µM in test [8]; 61.8 µM in test [9]; above 100 µM in [20]; above 100 µM in test [10]; 40.3 µM in test [11]; above 100 µM in test [12]. Besides, the TGI in test [13] was 95.7 µM; in [14], 91.7 µM; in [15], 64.1 µM; in test [16] it was 56.2 µM; in test [17], above 100 µM; in test [18] it was 78.4 µM. This compound registered a TGI in [19] of 60.7 µM.
Turning to `CSc1ccc(/C=C/C(=O)c2nc3ccccc3[nH]2)cc1`, the TGI in [1] came to 18.6 µM; in test [2] it was 43.8 µM; in test [3] it was 8.97 µM; in test [4], 43.1 µM; in test [5], 13.4 µM; in test [6] it was 82.1 µM. The TGI in [7] was 41.2 µM; in [8] it was 6.56 µM; in [9], 57 µM; in [20], 49.4 µM; in test [10], above 100 µM; in test [11] it was 35.8 µM. Moreover, the TGI in [12] was above 100 µM; in test [13], 43.2 µM; in test [14] it was 48.4 µM; in [15], 19.9 µM; in [16], 57.8 µM; in [17], 31.5 µM. Also, the TGI in test [18] came out at 45.2 µM; in test [19] it was 29.7 µM.
As to `O=C1CC2(CCN(CC3COc4ccccc4O3)CC2)C(=O)N1N1CCCCCC1` (stereo not drawn), the TGI in test [1] is 63.6 µM; in test [2] it was above 100 µM; in [3] it was above 100 µM; in test [4] it was above 100 µM; in test [5] it was above 100 µM; in test [6] it was above 100 µM. Besides, the TGI in [7], in test [8], in test [20], in [10], in test [11] and in test [12] was above 100 µM throughout. Further, the TGI in [13], in test [14], in test [15], in test [16], in test [17] and in [19] was above 100 µM each time.
In the case of `C=CC(C)CCC(C/C=C(\C)CCCC(C)C)C(=C)CCCC(C)C` (stereo not drawn), the TGI in test [1], in test [2], in [3], in [4], in test [5] and in [6] was above 100 µM each time. For the same compound, the TGI in test [7], in test [8], in test [9], in test [20], in test [10] and in test [11] was above 100 µM in each case. Besides, the TGI in test [12], in test [13], in test [14], in test [15], in test [16] and in test [17] was above 100 µM each time. In addition, the TGI in test [18] and in [19] was above 100 µM throughout.
As to `O=c1oc2cc(O)ccc2c(O)c1C(c1ccc2ccccc2c1)c1c(O)c2ccc(O)cc2oc1=O`, the TGI in test [1] was above 100 µM; in [2] it was 37.7 µM; in [3], above 100 µM; in test [4], 69.2 µM; in [5], 85.2 µM; in [6], above 100 µM. Also, the TGI in test [7] was above 100 µM; in test [8], 67.1 µM; in test [9], above 100 µM; in test [20], 49.3 µM; in test [10], above 100 µM; in test [11] it was above 100 µM. Further, the TGI is above 100 µM in test [12]; above 100 µM in test [14]; 31.7 µM in test [15]; above 100 µM in test [16]; above 100 µM in [17]; above 100 µM in test [18]. The compound also gave a TGI in test [19] above 100 µM.
Consider `CCOC(=O)c1ccc(OCc2nc3cc(C(F)(F)F)ccc3nc2-c2ccccc2)cc1`, for which the TGI in [1], in test [2], in test [3], in test [4], in test [5] and in [6] was above 100 µM in each case. Further, the TGI in test [7], in test [8], in test [9], in test [20], in test [10] and in test [11] was above 100 µM in each case. For the same compound, the TGI in test [12], in test [13], in test [14], in [15], in test [16] and in [17] was above 100 µM in each case. Moreover, the TGI in test [18] and in [19] was above 100 µM throughout.
On to `CC[C@]1(Cc2ccc(OC)c(OC)c2)C=[N+]([O-])O[C@H](OC2CCCCC2c2ccccc2)[C@@H]1OC(C)=O` (stereo partly drawn), for which the TGI is 63 µM in [1]; above 100 µM in [2]; above 100 µM in test [3]; 40.9 µM in [4]; 69.7 µM in test [5]; above 100 µM in [6]. The TGI in test [7] was above 100 µM; in test [8], 91.1 µM; in test [9], above 100 µM; in test [20], above 100 µM; in test [10], 68.3 µM; in test [11], above 100 µM. The TGI in [12], in [13], in test [14], in test [15], in [16] and in [17] was above 100 µM throughout. Also, the TGI in [18] and in [19] was above 100 µM each time.
On to `O=P1(N(CCCl)CCCl)Oc2c(Cl)cc(Cl)c(Cl)c2Cc2c(Cl)c(Cl)cc(Cl)c2O1`, for which the TGI in [1], in test [2], in test [3], in test [4], in test [5] and in test [6] was above 100 µM throughout. The TGI in test [7], in [8], in test [9], in [10], in test [11] and in test [12] was above 100 µM in each case. In addition, the TGI in test [13], in test [14], in [15], in [16], in test [17] and in test [18] was above 100 µM in each case. Further, the TGI in [19] was above 100 µM.
In the case of `C=C1CC(COc2ccc3c(C)c(Cl)c(=O)oc3c2)(c2ccccc2)OC1=O` (stereo not drawn), the TGI is 11.7 µM in [2]; 5.14 µM in test [3]; 1.42 µM in [4]; 1.42 µM in test [5]; 20.3 µM in test [6]; 25.7 µM in test [7]. For the same compound, the TGI was above 21.5 µM in [8]; 6.69 µM in test [9]; 29.7 µM in test [20]; 7.6 µM in [11]; 6.04 µM in test [13]; 2.87 µM in test [14]. The TGI came out at 12.5 µM in test [15]; 3.63 µM in test [16]; 3.18 µM in [17]; 23.5 µM in test [18]; 4.15 µM in test [19].
For `Cc1cc2nn(C3CCCCO3)nc2cc1C` (stereo not drawn), the TGI in test [1], in [2], in test [3], in test [6], in test [7] and in test [8] was above 100 µM each time. Also, the TGI in [9], in test [20], in [10], in test [11], in [12] and in test [13] was above 100 µM each time. The TGI in [14], in test [15], in test [16], in [17], in test [18] and in test [19] was above 100 µM in each case.
